± gives the standard deviation of the averaged measurements.
Assays:
Details in all cases: 72 h
Caco-2 [1] = assay: relative viability EC50 (midpoint between 100% and the lowest measured viability); higher = less toxic
U2OS [2] = assay: as above
Vero E6 [3] = assay: as above
Calu-3 [4] = assay: as above
HepG2 [5] = assay: cell viability relative to DMSO; higher = less toxic
Caco-2 [6] = assay: as above
U2OS [7] = assay: as above
Vero E6 [8] = assay: as above
Calu-3 [9] = assay: as above
HepG2 [10] = assay: drug sensitivity score (DSS) for viability; higher = more toxic; extreme values may be limits of the assay
Caco-2 [11] = assay: as above
U2OS [12] = assay: as above
Vero E6 [13] = assay: as above
Calu-3 [14] = assay: as above
HepG2 [15] = assay: relative viability EC50 (midpoint between 100% and the lowest measured viability); higher = less toxic

| SMILES | relative viability EC50 (Caco-2 [1]) | relative viability EC50 (U2OS [2]) | relative viability EC50 (Vero E6 [3]) | relative viability EC50 (Calu-3 [4]) | cell viability (HepG2 [5]; 1 nM) | cell viability (HepG2 [5]; 10 nM) | cell viability (HepG2 [5]; 100 nM) | cell viability (HepG2 [5]; 1000 nM) | cell viability (HepG2 [5]; 10000 nM) | cell viability (Caco-2 [6]; 1 nM) | cell viability (Caco-2 [6]; 10 nM) | cell viability (Caco-2 [6]; 100 nM) | cell viability (Caco-2 [6]; 1000 nM) | cell viability (Caco-2 [6]; 10000 nM) | cell viability (U2OS [7]; 1 nM) | cell viability (U2OS [7]; 10 nM) | cell viability (U2OS [7]; 100 nM) | cell viability (U2OS [7]; 1000 nM) | cell viability (U2OS [7]; 10000 nM) | cell viability (Vero E6 [8]; 1 nM) | cell viability (Vero E6 [8]; 10 nM) | cell viability (Vero E6 [8]; 100 nM) | cell viability (Vero E6 [8]; 1000 nM) | cell viability (Vero E6 [8]; 10000 nM) | cell viability (Calu-3 [9]; 1 nM) | cell viability (Calu-3 [9]; 10 nM) | cell viability (Calu-3 [9]; 100 nM) | cell viability (Calu-3 [9]; 1000 nM) | cell viability (Calu-3 [9]; 10000 nM) | drug sensitivity score (HepG2 [10]) | drug sensitivity score (Caco-2 [11]) | drug sensitivity score (U2OS [12]) | drug sensitivity score (Vero E6 [13]) | drug sensitivity score (Calu-3 [14]) | relative viability EC50 (HepG2 [15]) |
| --- | --- | --- | --- | --- | --- | --- | --- | --- | --- | --- | --- | --- | --- | --- | --- | --- | --- | --- | --- | --- | --- | --- | --- | --- | --- | --- | --- | --- | --- | --- | --- | --- | --- | --- | --- |
| N=C(N)c1ccc(/N=N/Nc2ccc(C(=N)N)cc2)cc1 [diminazene-aceturate] | > 10 µM | > 10 µM | > 10 µM | > 10 µM | 112% | 113% | 90.2% | 86.5% | 50.5% | 104% | 102% | 112% | 91.1% | 76.6% | 99% | 98.3% | 103% | 98.2% | 107% | 99.7% | 109% | 107% | 102% | 91.3% | 93.7% | 101% | 99.9% | 99.2% | 94.8% | 4.2 | 1.9 | 0 | 0 | 0 | – |
| N#Cc1cccc(-c2nc(-c3cccnc3)no2)c1 [NS-9283] | > 10 µM | > 10 µM | > 10 µM | – | 105% | 97.2% | 104% | 101% | 98.8% | 91.1% | 94.4% | 90.9% | 95% | 93.1% | 100% | 101% | 97.1% | 98.6% | 99.7% | 99.1% | 98.7% | 101% | 102% | 99.7% | – | – | – | – | – | 0 | 0 | 0 | 0 | – | > 10 µM |
| O=C(O)c1ccc(S(=O)(=O)N(Cc2ccc(OC(F)(F)F)cc2)c2ncc(C(F)(F)F)cc2Cl)cc1 | > 10 µM | > 10 µM | > 10 µM | – | 104% | 108% | 95.3% | 99.8% | 95.6% | 96.7% | 92.3% | 90.6% | 96.5% | 104% | 99.4% | 95.1% | 97.3% | 96.2% | 97.2% | 104% | 95.9% | 99.3% | 96.5% | 88.9% | – | – | – | – | – | 0 | 0 | 0 | 0.1 | – | > 10 µM |
| C[C@H](CCC(=O)O)[C@H]1CC[C@H]2[C@@H]3C(=O)C[C@@H]4CC(=O)CC[C@]4(C)[C@H]3CC(=O)[C@]12C [dehydrocholate-acid] | > 10 µM | > 10 µM | > 10 µM | – | 95.8 ± 7.3% | 102 ± 5.5% | 95.05 ± 0.21% | 103 ± 1.1% | 102 ± 7.3% | 95.5 ± 1.1% | 84 ± 19% | 96.2 ± 5.6% | 94.2 ± 6.7% | 93.2 ± 16% | 101 ± 2.8% | 96.9 ± 2.8% | 98.3 ± 1.3% | 96 ± 2.3% | 97.6 ± 0.14% | 97.8 ± 0.57% | 102 ± 5.9% | 91.2 ± 6.6% | 94 ± 8% | 103 ± 7.6% | – | – | – | – | – | 0 | 0 | 0 | 0 | – | > 10 µM |
| O=S(=O)(c1cccc2c(Cl)cccc12)N1CCCNCC1 [ML9] | > 10 µM | > 10 µM | > 10 µM | > 10 µM | 96.3% | 96.5% | 90.8% | 93.3% | 74.7% | 94.5% | 91.6% | 97.3% | 88% | 87.7% | 95.5% | 93.3% | 96.9% | 102% | 103% | 89% | 96.9% | 87.9% | 96.8% | 94.1% | 110% | 104% | 110% | 99.9% | 98.9% | 1.5 | 0.1 | 0 | 0 | 0 | – |
| O=C(NC(NC(=S)Nc1ccc(F)c([N+](=O)[O-])c1)C(Cl)(Cl)Cl)C(c1ccccc1)c1ccccc1 (stereo not given) [CGK-733] | 2.26 µM | 2.72 µM | 2.96 µM | – | 95.8% | 94.2% | 104% | 96.7% | 7.9% | 99.2% | 106% | 93.9% | 90.3% | 10.7% | 94.4% | 103% | 96.4% | 95.9% | 27.4% | 98.8% | 100% | 101% | 97.8% | 20% | 97.8% | 103% | 96.6% | 104% | 52.8% | 5.6 | 6.6 | 4.6 | 4.7 | 2.2 | 2.91 µM |
| CCn1cc(C(=O)O)c(=O)c2ccc(-c3ccncc3)cc21 [rosoxacin] | > 10 µM | > 10 µM | > 10 µM | – | 94.7% | 97.8% | 97.5% | 94.6% | 111% | 102% | 98% | 96.3% | 98.6% | 95.7% | 101% | 96.6% | 99.2% | 97.8% | 99.9% | 99.8% | 102% | 89.1% | 103% | 103% | – | – | – | – | – | 0 | 0 | 0 | 0 | – | > 10 µM |
| CCN1CCN(C(=O)N[C@@H](C(=O)N[C@@H]2C(=O)N3[C@@H]2SC(C)(C)[C@@H]3C(=O)O)c2ccccc2)C(=O)C1=O [piperacillin] | > 10 µM | > 10 µM | > 10 µM | – | 114% | 113% | 104% | 103% | 95.5% | 93.8% | 91.1% | 97.8% | 103% | 106% | 97% | 94% | 93.9% | 102% | 103% | 97.2% | 99.1% | 97.7% | 96.5% | 110% | – | – | – | – | – | 0 | 0 | 0 | 0 | – | > 10 µM |
| COC(=O)Nc1nc2cc(C(=O)c3cccs3)ccc2[nH]1 [nocodazole] | 0.174 µM | 0.252 µM | 0.103 µM | – | 114% | 103% | 85.6% | 40% | 40.2% | 102% | 105% | 73.6% | 54.1% | 40.6% | 105% | 110% | 70.4% | 46% | 24.3% | 105% | 108% | 64.8% | 30.7% | 26.8% | 103% | 105% | 73.8% | 65.4% | 54.9% | 13.3 | 11.8 | 13.6 | 17.9 | 10.6 | 0.159 µM |
| Cc1nc2c(OCc3ccccc3)cccn2c1CC#N | > 10 µM | > 10 µM | > 10 µM | – | 106% | 107% | 95.9% | 106% | 97.5% | 97.9% | 91.1% | 107% | 100% | 93.6% | 98% | 102% | 100% | 95.3% | 98.2% | 92.4% | 93.3% | 95.8% | 95.1% | 103% | – | – | – | – | – | 0 | 0 | 0 | 0 | – | > 10 µM |
| S=C(NC1CCCCC1)N1CCC(c2cnc[nH]2)CC1 [thioperamide] | > 10 µM | > 10 µM | > 10 µM | – | 108% | 97.3% | 104% | 100% | 92.7% | 98.7% | 99.4% | 92.7% | 103% | 95.4% | 100% | 96.2% | 98.7% | 93.1% | 96.4% | 103% | 103% | 96.5% | 94.3% | 95.9% | – | – | – | – | – | 0 | 0 | 0 | 0 | – | > 10 µM |
| OCc1ccc(CO)o1 [2,5-furandimethanol] | > 10 µM | > 10 µM | > 10 µM | – | 98.6% | 97.3% | 108% | 106% | 100% | 89.2% | 100% | 84.4% | 95.1% | 103% | 95.4% | 104% | 96.6% | 98.5% | 99% | 97.1% | 94.3% | 88.2% | 94.4% | 107% | – | – | – | – | – | 0 | 0 | 0 | 0 | – | > 10 µM |

Reference: the supplement of paper PMC13380429
